Reference: patent publication US8802597B2, “Herbicidal pyrimidines” (E I du Pont de Nemours and Company, priority 2003, dated 2014)

Tests used:
Assay type in all cases: in vivo
[1] = system: yellow nutsedge (Cyperus esculentus); assay: Test C pre/postemergence; conditions: for Nutsedge, Yellow plant response rating: scale 0 to 100 (0 no effect, 100 complete control)
Outline: (§1)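 Test compounds, formulated in a non-phytotoxic solvent mix with surfactant, were applied to freshly planted seeds and, at the same time, to emerged plants at 1- to 4-leaf stage (2 to 18 cm). After 12 to 14 days in the greenhouse, response was scored visually versus controls, 0 = no effect, 100 = complete control.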

soybean (Glycine max) = assay: Test C pre/postemergence; conditions: for Soybean plant response rating: scale 0 to 100 (0 no effect, 100 complete control)
Outline: as §1

[2] = system: crabgrass (Digitaria sanguinalis); assay: Test C pre/postemergence; conditions: for Crabgrass plant response rating: scale 0 to 100 (0 no effect, 100 complete control)
Outline: as §1

[3] = system: umbrella sedge (Cyperus difformis); assay: Test C flooded paddy test; conditions: Flood, scale 0 to 100
Protocol: (§2) At the same time, plants selected from these crop and weed species and also winter barley (Hordeum vulgare), blackgrass (Alopecurus myosuroides), canarygrass (Phalaris minor), chickweed (Stellaria media), downy brome (Bromus tectorum), green foxtail (Setaria viridis), Italian ryegrass (Lolium multiflorum), wheat (Triticum aestivum), wild oat (Avena fatua) and windgrass (Apera spica-venti) were treated with postemergence applications of some of the test chemicals formulated in the same manner. Plants ranged in height from 2 to 18 cm (1- to 4-leaf stage) for postemergence treatments. Plant species in the flooded paddy test consisted of rice (Oryza sativa), umbrella sedge (Cyperus difformis), duck salad (Heteranthera limosa) and barnyardgrass (Echinochloa crus-galli) grown to the 2-leaf stage for testing. Treated plants and controls were maintained in a greenhouse for 12 to 14 days, after which time all species were compared to controls and visually evaluated. Plant response ratings, summarized in Table C, are based on a scale of 0 to 100 where 0 is no effect and 100 is complete control. A dash (-) response means no test result.

[4] = system: barnyardgrass (Echinochloa crus-galli); assay: Test C flooded paddy test; conditions: Flood
Protocol: as §2

[5] = system: duck salad (Heteranthera limosa); assay: Test C flooded paddy test; conditions: Flood, scale 0 to 100
Protocol: as §2

rice (Oryza sativa) = assay: Test C flooded paddy test; conditions: Flood, scale 0 to 100
Protocol: as §2

[6] = Postemergence, 250 g ai/ha, scale 0 to 100
[7] = Preemergence, 31 g ai/ha, scale 0 to 100, 0 no effect, 100 complete control
[8] = Preemergence, 62 g ai/ha, scale 0 to 100, 0 no effect, 100 complete control
[9] = Preemergence, 125 g ai/ha, scale 0 to 100
[10] = Preemergence, 250 g ai/ha, scale 0 to 100

CCCCOC(=O)c1nc(C2CC2)nc(N)c1Br [Compound 16]
95: Soybean plant response rating (soybean (Glycine max); Postemergence, 62 g ai/ha) | Plant response rating, Crabgrass [2, 10]
50: Plant response rating, Sedge, Umbrella ([3]; 250 g ai/ha) | Plant response rating, Barnyardgrass ([4]; 500 g ai/ha, scale 0 to 100 (0 no effect, 100 complete control))
75: Plant response rating, Soybean (soybean (Glycine max); [7]) | Plant response rating, Crabgrass [2, 6] | Plant response rating, Ducksalad ([5]; 250 g ai/ha)
45: Crabgrass plant response rating ([2]; Postemergence, 125 g ai/ha)
15: Crabgrass plant response rating ([2]; Postemergence, 62 g ai/ha) | Plant response rating, Barnyardgrass ([4]; 250 g ai/ha, scale 0 to 100)
65: Plant response rating, Crabgrass [2, 9] | Plant response rating, Ducksalad ([5]; 62 g ai/ha) | Plant response rating, Ducksalad ([5]; 125 g ai/ha) | Plant response rating, Rice (rice (Oryza sativa); 500 g ai/ha)
100: Soybean plant response rating (soybean (Glycine max); Postemergence, 125 g ai/ha) | Plant response rating, Soybean (soybean (Glycine max); [6]) | Plant response rating, Soybean (soybean (Glycine max); [9]) | Plant response rating, Soybean (soybean (Glycine max); [10])
85: Plant response rating (scale of 0 to 100), Soybean (soybean (Glycine max); Postemergence, 31 g ai/ha) | Plant response rating, Soybean (soybean (Glycine max); [8]) | Plant response rating, Ducksalad ([5]; 500 g ai/ha)
0: Plant response rating (scale of 0 to 100), Nutsedge, Yellow ([1]; Postemergence, 31 g ai/ha) | Nutsedge, Yellow plant response rating ([1]; Postemergence, 62 g ai/ha) | Nutsedge, Yellow plant response rating ([1]; Postemergence, 125 g ai/ha) | Plant response rating, Nutsedge, Yellow [1, 6] | Plant response rating, Nutsedge, Yellow [1, 7] | Plant response rating, Nutsedge, Yellow [1, 8] | Plant response rating, Nutsedge, Yellow [1, 9] | Plant response rating, Nutsedge, Yellow [1, 10] | Plant response rating (scale of 0 to 100), Crabgrass ([2]; Postemergence, 31 g ai/ha) | Plant response rating, Crabgrass [2, 7] | Plant response rating, Crabgrass [2, 8] | Plant response rating, Sedge, Umbrella ([3]; 125 g ai/ha) | Plant response rating, Barnyardgrass ([4]; 62 g ai/ha, scale 0 to 100) | Plant response rating, Barnyardgrass ([4]; 125 g ai/ha, scale 0 to 100) | Plant response rating, Rice (rice (Oryza sativa); 62 g ai/ha) | Plant response rating, Rice (rice (Oryza sativa); 125 g ai/ha) | Plant response rating, Rice (rice (Oryza sativa); 250 g ai/ha)
55: Plant response rating, Sedge, Umbrella ([3]; 500 g ai/ha)
